# Laboratory results from patent publication US20130210786A1, “TREATMENT OF L-DOPA, DOPAMINE AGONIST AND/OR DOPAMINE ENHANCER INDUCED DISORDERS” (priority 2010, published 2013).
# Columns and labels:
# MPTP-lesioned macaques [1] = assay: L-DOPA induced dyskinesia (LID) in MPTP-lesioned macaques, monkey dyskinesia rating scale; type: in vivo, Macaca fascicularis; settings: group 1 (L-DOPA+vehicle); challenge with L-DOPA 12, 20, 30 or 40 mg/kg p.o.
# Experimental: Ten female cynomolgus monkeys (macaques) (Macaca fascicularis, 3.0-4.5 kg, 4-6 years old) were acclimatised to the experimental setting and procedures for 3 months and baseline behaviour was assessed in all animals. The macaques received MPTP (0.2 mg/kg/day, s.c.) until moderate-marked, stable, parkinsonian symptoms developed.
# Following stabilisation of parkinsonian disability, the macaques were administered L-DOPA (Madopar, 20 mg/kg b.i.d., p.o.) for 19 weeks before being administered L-DOPA+vehicle (hydroxypropylmethylcellulose, HPMC, 0.5% w/v containing Tween 80, 0.2% v/v, group 1, n=5) or L-DOPA+smilagenin (20 mg/kg/day, p.o., group 2, n=5) for a further 18 weeks. Smilagenin was then washed out for 10 weeks and all the macaques received only L-DOPA twice daily over this 10 week period.
# Following the 10 week washout, the macaques were challenged with L-DOPA (6, 12, 20, 30 or 40 mg/kg, p.o.) or vehicle and the level of dyskinesia over the subsequent 6 h period was assessed by a neurologist blinded to treatment using a monkey dyskinesia rating scale. […] Each macaque received a challenge once every 3 days and received every challenge (vehicle and L-DOPA, 6, 12, 20, 30 or 40 mg/kg) in a randomised order over the course of the experiment. On the days between challenges, the macaques received L-DOPA (20 mg/kg, b.i.d., p.o.) as normal.
# The MPTP-lesioned and L-DOPA treated macaques used in this experiment provide an accepted model for L-DOPA-induced dyskinesia.
# MPTP-lesioned macaques [2] = assay: On-time (time without bradykinesia) in MPTP-lesioned macaques after L-DOPA challenge; type: in vivo, Macaca fascicularis; settings: both groups; L-DOPA challenge 6-40 mg/kg p.o.
# Experimental: Analysis was performed using a two-way ANOVA with group and L-DOPA dose as factors.
smiles,measurement,setting,value
"N[C@@H](Cc1ccc(O)c(O)c1)C(=O)O [L-DOPA, L-3,4-dihydroxyphenylalanine]",Dyskinesia following challenge with L-DOPA,MPTP-lesioned macaques [1],dose-dependent dyskinesia up to the 30 mg/kg dose
same,Effect of L-DOPA on amount of on-time,MPTP-lesioned macaques [2],increased the amount of on-time
